Test results published in patent publication US20250319640A1, “ACTIVE AND/OR INTELLIGENT PACKAGING MATERIALS CONTAINING RADICAL SCAVENGING LIGANDS” (CORNELL UNIVERSITY, priority 2022, published 2025).

Legend:
[1] = system: E. coli ATCC strain no. 25922; experiment: Bacterial growth inhibition assay (modified JIS Z2801: 2000); format: cell-based
Excerpt: (§1) The Japanese Industrial Standard (JIS) Z2801: 2000 method was slightly modified to analyze antibacterial activity of treated films against food-borne pathogenic bacteria (Association JS., “Antimicrobial products: Test for Antimicrobial Activity and Efficacy,” Japanese Industrial Standard JIS Z 2801 (2000), which is hereby incorporated by reference its entirety). Briefly, a culture of E. coli ATCC strain no. 25922 and a culture of L. monocytogenes from a food isolate were stored in 20% glycerol at −80° C. until use. The L. monocytogenes strain was obtained from the Cornell Food Safety Laboratory Bacterial Strains Collection as FSL C1-0053 and originally isolated from a finished ready-to-eat dairy food product. The cultures were streaked on tryptic soy agar (TSA) and incubated at 37° C. for E. coli and 30° C. L. monocytogenes for 24 hours. An isolated colony from each plate was used to inoculate 12 mL of tryptic soy broth (TSB), which was incubated with shaking for 24 hours at 37° C. A 100 μL aliquot of each culture was used to inoculate 50 mL TSB, which was incubated with shaking for 24 hours at 37° C. to achieve a cell density of 10^9 CFU/mL, which was confirmed by plate count on TSA. Each culture was diluted to reach a starting concentration of 10^5 CFU/mL, also confirmed by plate count on TSA. Treated films were cut into 5×5 cm^2 squares and stored in sterile conditions after the ethanol wash described in the synthesis step. A 0.4 mL aliquot of each 10^5 CFU/mL culture was placed on the treated films and covered with a 4×4 cm^2 sterile PP film to create a sandwich. The PP cover was lightly pressed down with sterile tweezers to distribute the inoculum across the treated film and the sandwich was placed in a Petri dish. The Petri dish was placed in an airtight box containing paper towels saturated with 100 mL of filtered water to maintain a humid environment. The entire apparatus was incubated at 37° C. for 24 hours. After incubation, 10 mL of phosphate buffered saline (PBS, pH 7.4) solution was pipetted into each Petri dish and well mixed to disassemble the sandwich and dilute the inoculated broth. An aliquot was taken from each Petri dish and serially diluted with PBS buffer. A 100 μL aliquot of the appropriate dilution was plated in duplicate on TSA and incubated for 24 hours at 37° C. Plates with 30-300 CFU were counted, and the average plate count of the duplicate plates was recorded. Plate counts for treated films were subtracted from the average plate count of the control to determine inhibition of bacterial growth. The assay was performed on triplicate coupons from two independently extruded batches, totaling 6 replicates per treatment.
(§2) To determine the antimicrobial performance of free curcumin, the assay was repeated with curcumin powder added to the starting inoculum. Curcumin powder was first completely dissolved in ethanol to prepare 2 mg/mL and 0.2 mg/mL stock solutions. Stock solutions were diluted 10× in TSB to final concentrations of 200 μg/mL and 20 μg/mL curcumin, which was then inoculated to a 10^5 CFU/mL starting concentration of either E. coli or L. monocytogenes, confirmed by plate count. The procedure was repeated by replacing the curcumin stock solutions with absolute ethanol (10% v/v in TSB) to quantify any growth inhibition due to ethanol. […]

[2] = system: L. monocytogenes FSL C1-0053; experiment: as above; format: cell-based
Excerpt: as §1, §2

E. coli = conditions: against E. coli, previous studies; cited from earlier work
[3] = printed as pH 7.8; cited from earlier work
[4] = cited from earlier work

## COc1cc(/C=C/C(=O)CC(=O)/C=C/c2ccc(O)c(OC)c2)ccc1O [curcumin]
[1]; 20 μg/mL curcumin in TSB
  antibacterial function of free curcumin: did not display any antibacterial function
[1]; 10^5 CFU/mL inoculum, 37° C., 24 hours
  inhibition of bacterial growth compared to control: poor bacterial inhibition
[2]; 20 μg/mL curcumin in TSB, L. monocytogenes
  antibacterial function of free curcumin: did not display any antibacterial function
[2]; 200 μg/mL curcumin, partially fell out of solution in TSB
  inhibition of L. monocytogenes by free curcumin: 1.63±0.83 log (CFU/mL)
[2]; L. monocytogenes, 10^5 CFU/mL inoculum, 37° C., 24 hours
  inhibition of bacterial growth compared to control: poor bacterial inhibition
E. coli
  minimum inhibitory concentration (MIC): 100 to 200 µg/mL
[3]
  pKa of the enolic hydrogen: 7.8
[4]
  water solubility: low
